Here are results for 21 compounds from US20230201202A1, “COMPOSITIONS AND METHODS FOR SENSITIZING ACUTE MYELOID LEUKEMIAS TO CHEMOTHERAPY” (Duke University, priority 2020, published 2023).

Holding throughout (assay type): cell-based
Assay [1] has as its system phosphorylation of AKT and downstream substrates. Nature of the assay: Western immunoblotting of AKT pathway phosphorylation in AML cell lines. To be noted: for Phosphorylation of AKT and its downstream substrates: cell line models of AML, immunoblot (FIG. 1d, FIG. 4b). (In general: Immunoblotting shows a protein as a band on a membrane.)
Assay [2] has as its system AML cells. The assay can be described thus: In vitro drug sensitivity assay (GI50 assay, CellTiter-Glo). Conditions: for Chemosensitization of AML cells by inhibitors of alternative PI3K catalytic isoforms (p110α, p110β, p110δ): sensitivity to doxorubicin, S63845 or selinexor (FIG. 3b); for Sensitization of AML cells to the drug by IPI-549 treatment; GI50 of combination vs drug alone: indicated AML cell lines (FIG. 3a-b); for Chemosensitization to the drug mediated by PI3Kγ inhibition with IPI-549: OCI-AML2 cells (FIG. 6). Here is the method: AML cells were plated in 96-well plates at a density of 5,000-10,000 cells per 100 μL per well. Wells were treated with drug dilution series at the doses indicated and cultured for 72 hours. Subsequently, relative cell viability was approximated using Promega CellTiter-Glo Luminescent Cell Viability Assay, normalized to either DMSO or the indicated background drug. GI50 values where approximated from dose-response curves plotted using GraphPad/Prism 8 software.
In general terms: Cellular ATP, detected with luciferase, serves as a proxy for viable cell number.

In assay [3] the test system is phosphorylation of AKT. The assay can be described thus: Conditioned media and SDF1-a cytokine experiments (AKT activation in AML cells). The protocol: Serum free RPMI-1640 medium with incubated with a confluent plate of HS-5 cells for 36 hours. Conditioned media was centrifuged at 1200 rpm for 5 minutes and filtered with a 0.45 uM filter to remove any remaining cells. AML cells were incubated with conditioned media with or without IPI-549 for 30 minutes prior to harvesting on ice for lysate preparation. An analogous strategy was performed with SDF-1a (200 ng/mL) containing media. SDF-1a was purchased from ProteinTech and solubilized in water.

With `Cc1nc(NC(=O)N2CCC[C@H]2C(N)=O)sc1-c1ccnc(C(C)(C)C(F)(F)F)c1` [BYL-719, Alpelisib], the “Phosphorylation of AKT and its downstream substrates” value in assay [1] is on record as “minimally capable of suppressing”. Moreover, in assay [2], the “Chemosensitization of AML cells by inhibitors of alternative PI3K catalytic isoforms (p110α, p110β, p110δ)” value is “not observed”.

Take `C[C@H](NC(=O)c1c(N)nn2cccnc12)c1cc2cccc(C#Cc3cnn(C)c3)c2c(=O)n1-c1ccccc1` [IPI-549]: in assay [1], the “Phosphorylation of AKT and its downstream substrates” value is listed as “lost”. Besides, the “Activation of AKT signaling by media conditioned with human BM-MSCs (HS-5)” value in assay [3] (HL-60 (500 nM) and OCI-AML3 (100 nM IPI-549) cells (FIG. 1g)) was “fully precluded”. Moreover, the “Activation of AKT by SDF1α (CXCL12) stimulation” value in assay [3] (serum-deprived AML cells, 200 ng/mL SDF1α, HL-60 500 nM, OCI-AML3 100 nM IPI-549 (FIG. 1h)) is “prevented”. In addition, the “Correlation of sensitivity (GI50) to IPI-549 with sensitivity to AKT inhibition with MK-2206” value in assay [2] (panel of 10 AML cell lines (FIG. 5b-d)) is “strongly correlated”.

Consider `Cc1sc2c(c1C)C(c1ccc(Cl)cc1)=N[C@@H](CC(=O)OC(C)(C)C)c1nnc(C)n1-2` [JQ1], for which the “Sensitization of AML cells to the drug by IPI-549 treatment; GI50 of combination vs drug alone” value (“Sensitization of AML cells … vs drug alone” for short) in assay [2] is given as “can sensitize”.

As to `CC(C)n1nc(-c2ccc3oc(N)nc3c2)c2c(N)ncnc21` [MLN-128], in assay [2] (panel of AML cell lines (FIG. 2d, FIG. 5g)), the “Effect on potency of AKT/p110γ inhibition (MK-2206 or IPI-549); GI50 of combination vs single drug” value is “enhanced the potency”.

Turning to `O=C(Nc1ccc2[nH]nc(-c3ccncc3)c2c1)[C@@H]1CCN(CC(=O)N2CCN(c3ccc(-c4ncccn4)cc3)CC2)C1` [SCH772984], in assay [2], the “Sensitization of AML cells … vs drug alone” value is recorded as “can sensitize”.

With `Cc1cc(C(C)Nc2ccccc2)c2nc(N3CCOCC3)cc(=O)n2c1` (stereo not drawn) [TGX-221], in assay [2], the “Chemosensitization of AML cells by inhibitors of alternative PI3K catalytic isoforms (p110α, p110β, p110δ)” value is given as “not observed”.

As to `Nc1ncn([C@@H]2O[C@H](CO)[C@@H](O)[C@H]2O)c(=O)n1` [azacytidine], the “Chemosensitization to the drug mediated by PI3Kγ inhibition with IPI-549” value in assay [2] was “not observed”.

With `Cc1c(-c2c(-c3ccc(F)o3)sc3ncnc(O[C@H](Cc4ccccc4OCc4ccnn4CC(F)(F)F)C(=O)O)c23)ccc(OCCN2CCN(C)CC2)c1Cl` [compound 563845], the “Sensitization of AML cells … vs drug alone” value in assay [2] is listed as “can sensitize”.

For `Nc1ccn([C@@H]2O[C@H](CO)[C@@H](O)[C@@H]2O)c(=O)n1` [cytarabine], the “Chemosensitization to the drug mediated by PI3Kγ inhibition with IPI-549” value in assay [2] was “not observed”.

Take `COc1cccc2c1C(=O)c1c(O)c3c(c(O)c1C2=O)C[C@@](O)(C(C)=O)C[C@@H]3O[C@H]1C[C@H](N)[C@H](O)[C@H](C)O1` [daunorubicin]: the “Daunorubicin sensitivity under p110α inhibition; GI50 of combination vs daunorubicin alone” value in assay [2] (any of the AML models tested (FIG. 2e; legend prints BYL-549)) is “did not alter”. For the same compound, the “Daunorubicin sensitivity under p110γ inhibition (IPI-549); GI50 of combination vs daunorubicin alone” value in assay [2] (in 9/10 AML cell lines tested (FIG. 2e)) is given as “significantly potentiated”. For the same compound, the “Sensitization of AML cells … vs drug alone” value in assay [2] is reported as “can sensitize”.

As for `CC(=O)O[C@@]12CO[C@@H]1C[C@H](O)[C@@]1(C)C(=O)[C@H](O)C3=C(C)[C@@H](OC(=O)[C@H](O)[C@@H](NC(=O)OC(C)(C)C)c4ccccc4)C[C@@](O)([C@@H](OC(=O)c4ccccc4)[C@H]21)C3(C)C` [docetaxel], in assay [2], the “Chemosensitization to the drug mediated by PI3Kγ inhibition with IPI-549” value was “not observed”.

In the case of `COc1cccc2c1C(=O)c1c(O)c3c(c(O)c1C2=O)C[C@@](O)(C(=O)CO)C[C@@H]3O[C@H]1C[C@H](N)[C@H](O)[C@H](C)O1` [doxorubicin], the “Sensitization of AML cells … vs drug alone” value in assay [2] was “can sensitize”.

`COc1cc([C@@H]2c3cc4c(cc3[C@@H](O[C@@H]3O[C@@H]5CO[C@@H](C)O[C@H]5[C@H](O)[C@H]3O)[C@H]3COC(=O)[C@H]23)OCO4)cc(OC)c1O` [etoposide]: in assay [2], the “Sensitization of AML cells … vs drug alone” value is recorded as “can sensitize”.

`CN1CC[C@@H](NC(=O)Nc2ccc(C#N)cc2)C[C@@H]1c1nc2ccccc2[nH]1` [glasdegib]: in assay [2], the “Chemosensitization to the drug mediated by PI3Kγ inhibition with IPI-549” value is recorded as “not observed”.

With `CC(=O)[C@]1(O)Cc2c(O)c3c(c(O)c2[C@@H](O[C@H]2C[C@H](N)[C@H](O)[C@H](C)O2)C1)C(=O)c1ccccc1C3=O` [idarubicin], in assay [2], the “Sensitization of AML cells … vs drug alone” value is on record as “can sensitize”.

For the compound `CN(Cc1cnc2nc(N)nc(N)c2n1)c1ccc(C(=O)N[C@@H](CCC(=O)O)C(=O)O)cc1` [methotrexate], the “Chemosensitization to the drug mediated by PI3Kγ inhibition with IPI-549” value in assay [2] is “not observed”.

In the case of `O=C1[O][Pt]2([NH][C@@H]3CCCC[C@H]3[NH]2)[O]C1=O` [oxaliplatin], in assay [2], the “Chemosensitization to the drug mediated by PI3Kγ inhibition with IPI-549” value was “not observed”.

As to `CC(C)(C)c1cc(NC(=O)Nc2ccc(-c3cn4c(n3)sc3cc(OCCN5CCOCC5)ccc34)cc2)no1` [quizartinib], the “Sensitization of AML cells … vs drug alone” value in assay [2] was “can sensitize”.

Turning to `O=C(/C=C\n1cnc(-c2cc(C(F)(F)F)cc(C(F)(F)F)c2)n1)NNc1cnccn1` [selinexor], the “Sensitization of AML cells … vs drug alone” value in assay [2] is listed as “can sensitize”.

For the compound `CNC(=O)c1cc(Oc2ccc(NC(=O)Nc3ccc(Cl)c(C(F)(F)F)c3)cc2)ccn1` [sorafenib], the “Sensitization of AML cells … vs drug alone” value in assay [2] is on record as “can sensitize”.

Regarding pertussis toxin, in assay [1] (AML cell lines, Ptx 100 ng/mL for 24 hours (FIG. 1f)), the AKT phosphorylation entry is listed as “diminished”.
